In PubChem BioAssay AID248 (DTP/NCI, 2004):
Where “and” joins values, the source holds several entries; their conditions need not be identical. Equal entries are not always repeated. Inconclusive results and toxic doses are left out. Rule as the data show it: active = T/C of 150% or more; inactive = T/C below 125%.

System: L1210 leukemia ip in BDF1 mice, survival T/C
Assay: NCI In Vivo Anticancer Drug Screen. Data for tumor model L1210 Leukemia (intraperitoneal) in B6D2F1 (BDF1) mice
Settings: endpoint: mean survival time, higher = longer survival
In short: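 Transplantable tumor model; survival measured in treated vs vehicle control mice. Value = treated/control.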

[1] = dose: 100.0 mg/kg/injection, schedule: Q01DX001 (ip), vehicle: Klucel (hydroxypropylcellulose) (HPC)
[2] = dose: 100.0 mg/kg/injection, schedule: Q01DX009 (ip), vehicle: Klucel (hydroxypropylcellulose) (HPC)
[3] = dose: 100.0 mg/kg/injection, schedule: Q04DX002 (ip), vehicle: Klucel (hydroxypropylcellulose) (HPC)
[4] = dose: 100.0 mg/kg/injection, schedule: Q04DX003 (ip), vehicle: Klucel (hydroxypropylcellulose) (HPC)
[5] = dose: 200.0 mg/kg/injection, schedule: Q01DX001 (ip), vehicle: Klucel (hydroxypropylcellulose) (HPC)
[6] = dose: 200.0 mg/kg/injection, schedule: Q01DX009 (ip), vehicle: Klucel (hydroxypropylcellulose) (HPC)
[7] = dose: 200.0 mg/kg/injection, schedule: Q04DX002 (ip), vehicle: Klucel (hydroxypropylcellulose) (HPC)
[8] = dose: 200.0 mg/kg/injection, schedule: Q04DX003 (ip), vehicle: Klucel (hydroxypropylcellulose) (HPC)
[9] = dose: 400.0 mg/kg/injection, schedule: Q01DX001 (ip), vehicle: Klucel (hydroxypropylcellulose) (HPC)
[10] = dose: 400.0 mg/kg/injection, schedule: Q04DX003 (ip), vehicle: Klucel (hydroxypropylcellulose) (HPC)
[11] = dose: 400.0 mg/kg/injection, schedule: Q01DX009 (ip), vehicle: Klucel (hydroxypropylcellulose) (HPC)
[12] = dose: 50.0 mg/kg/injection, schedule: Q01DX001 (ip), vehicle: saline
[13] = dose: 100.0 mg/kg/injection, schedule: Q01DX001 (ip), vehicle: saline
[14] = dose: 200.0 mg/kg/injection, schedule: Q01DX001 (ip), vehicle: saline
[15] = dose: 400.0 mg/kg/injection, schedule: Q01DX001 (ip), vehicle: saline
[16] = dose: 100.0 mg/kg/injection, schedule: Q01DX001 (ip), vehicle: other
[17] = dose: 200.0 mg/kg/injection, schedule: Q01DX001 (ip), vehicle: other
[18] = dose: 400.0 mg/kg/injection, schedule: Q01DX001 (ip), vehicle: other

Measured: T/C

COc1cc(/C=N/Nc2ccc([N+](=O)[O-])cc2)cc(OC)c1OC
inactive: dose: 100.0 mg/kg/injection, schedule: Q04DX003 (ip), vehicle: saline with Tween-80 86 % of control | dose: 200.0 mg/kg/injection, schedule: Q04DX003 (ip), vehicle: saline with Tween-80 89 % of control | dose: 400.0 mg/kg/injection, schedule: Q04DX003 (ip), vehicle: saline with Tween-80 86 % of control

O=C(O)/C(=C\c1ccc([N+](=O)[O-])cc1)c1cccc(Cl)c1
inactive: [1] 108 % of control | [2] 96 % of control and 97 % of control | [3] 94 % of control and 89 % of control | [4] 106 % of control | [5] 103 % of control | [6] 97 % of control and 102 % of control | [7] 101 % of control and 102 % of control | [8] 97 % of control | [9] 98 % of control | dose: 400.0 mg/kg/injection, schedule: Q04DX002 (ip), vehicle: Klucel (hydroxypropylcellulose) (HPC) 99 % of control | [10] 99 % of control

N#CC(CC(=O)O)=C(c1ccccc1)c1ccccc1
inactive: [1] 106 % of control | [2] 97 % of control and 104 % of control | [3] 96 % of control and 98 % of control | [4] 97 % of control | [5] 110 % of control | [6] 95 % of control and 101 % of control | [7] 95 % of control and 101 % of control | [8] 101 % of control

O=C(NCCN1CCCC1)NC1CCCCC1
inactive: [2] 101 % of control | [6] 98 % of control

Cc1ccc2[nH]c(=S)n(-c3ccc(C)c(Cl)c3)c(=O)c2c1
inactive: dose: 100.0 mg/kg/injection, schedule: Q01DX009 (ip), vehicle: carboxymethylcellulose (CMC) 95 % of control | dose: 100.0 mg/kg/injection, schedule: Q04DX002 (ip), vehicle: carboxymethylcellulose (CMC) 99 % of control and 89 % of control | dose: 200.0 mg/kg/injection, schedule: Q01DX009 (ip), vehicle: carboxymethylcellulose (CMC) 93 % of control and 89 % of control | dose: 200.0 mg/kg/injection, schedule: Q04DX002 (ip), vehicle: carboxymethylcellulose (CMC) 96 % of control and 99 % of control | dose: 400.0 mg/kg/injection, schedule: Q01DX009 (ip), vehicle: carboxymethylcellulose (CMC) 92 % of control and 89 % of control | dose: 400.0 mg/kg/injection, schedule: Q04DX002 (ip), vehicle: carboxymethylcellulose (CMC) 92 % of control

O=Nc1ccc(O)cc1Cl
inactive: [1] 103 % of control and 88 % of control | [5] 117 % of control | [9] 95 % of control and 103 % of control

CCOC(=O)C(C(=O)CC)=P(c1ccccc1)(c1ccccc1)c1ccccc1
inactive: dose: 100.0 mg/kg/injection, schedule: Q01DX005 (ip), vehicle: Klucel (hydroxypropylcellulose) (HPC) 113 % of control | [2] 97 % of control | dose: 200.0 mg/kg/injection, schedule: Q01DX005 (ip), vehicle: Klucel (hydroxypropylcellulose) (HPC) 88 % of control | [6] 108 % of control | dose: 400.0 mg/kg/injection, schedule: Q01DX005 (ip), vehicle: Klucel (hydroxypropylcellulose) (HPC) 98 % of control | [11] 110 % of control

CSc1ncnc2c1ncn2C1OC(CO)C2OC(C)(C)OC21 (centres undefined)
inactive: dose: 100.0 mg/kg/injection, schedule: Q01DX005 (ip), vehicle: saline 112 % of control | dose: 200.0 mg/kg/injection, schedule: Q01DX005 (ip), vehicle: saline 122 % of control

CCCCCCCc1nc2c([nH]1)c(=O)n(C)c(=O)n2C
inactive: [12] 98 % of control | [13] 101 % of control | [14] 95 % of control | [15] 116 % of control

CCOC(=O)C(C(=O)OCC)=C(C#N)c1c[nH]c2ccccc12
inactive: [2] 103 % of control | [4] 104 % of control | [6] 96 % of control | [8] 95 % of control | [11] 92 % of control | [10] 96 % of control

CCOC(=O)C1C(=O)CC(C)(O)C(C(=O)OCC)C1c1ccccc1 (centres undefined)
inactive: [13] 98 % of control | dose: 100.0 mg/kg/injection, schedule: Q04DX003 (ip), vehicle: saline 104 % of control | [14] 106 % of control | dose: 200.0 mg/kg/injection, schedule: Q04DX003 (ip), vehicle: saline 100 % of control | [15] 109 % of control | dose: 400.0 mg/kg/injection, schedule: Q04DX003 (ip), vehicle: saline 94 % of control

O=C(N/N=C/C=C/c1ccccc1)c1ccccc1O
inactive: [2] 92 % of control | [6] 89 % of control | [11] 95 % of control

CC(=O)CN
inactive: dose: 100.0 mg/kg/injection, schedule: Q01DX009 (ip), vehicle: saline 111 % of control | dose: 200.0 mg/kg/injection, schedule: Q01DX009 (ip), vehicle: saline 104 % of control | dose: 400.0 mg/kg/injection, schedule: Q01DX009 (ip), vehicle: saline 108 % of control

CC(C)(C)c1ccc(CC#N)cc1
inactive: dose: 25.0 mg/kg/injection, schedule: Q04DX003 (ip), vehicle: Klucel (hydroxypropylcellulose) (HPC) 97 % of control | dose: 50.0 mg/kg/injection, schedule: Q04DX003 (ip), vehicle: Klucel (hydroxypropylcellulose) (HPC) 94 % of control | [4] 90 % of control

Cc1c(C)c(C)c(CN/N=C/c2ccncc2)c(C)c1C
inactive: [4] 98 % of control | [8] 109 % of control | [10] 101 % of control

COc1ccc(OCC(C)=O)cc1
inactive: dose: 100.0 mg/kg/injection, schedule: Q01DX009 (ip), vehicle: saline with Tween-80 97 % of control | dose: 200.0 mg/kg/injection, schedule: Q01DX009 (ip), vehicle: saline with Tween-80 100 % of control | dose: 400.0 mg/kg/injection, schedule: Q01DX009 (ip), vehicle: saline with Tween-80 100 % of control

CCc1nc2c(c(=O)[nH]1)C(c1ccc(Cl)cc1)C(C)(C)O2 (centres undefined)
inactive: dose: 200.0 mg/kg/injection, schedule: Q04DX003 (ip), vehicle: acetone 94 % of control | dose: 400.0 mg/kg/injection, schedule: Q04DX003 (ip), vehicle: acetone 105 % of control

c1ccc(-c2ccc(C3=NC(c4ccccc4)CC3)[nH]2)cc1 (centres undefined)
inactive: dose: 50.0 mg/kg/injection, schedule: Q01DX009 (ip), vehicle: Klucel (hydroxypropylcellulose) (HPC) 90 % of control | [2] 90 % of control | [6] 86 % of control

O=[N+]([O-])c1cccn2cnnc12
inactive: dose: 100.0 mg/kg/injection, schedule: Q01DX001 (ip), vehicle: acetone 92 % of control

Nc1ncnc2nncnc12
inactive: dose: 50.0 mg/kg/injection, schedule: Q01DX001 (ip), vehicle: carboxymethylcellulose (CMC) 93 % of control | dose: 100.0 mg/kg/injection, schedule: Q01DX001 (ip), vehicle: carboxymethylcellulose (CMC) 93 % of control

Oc1cccc(C(c2ccccc2)C2CCCCC2)c1 (centres undefined)
inactive: dose: 100.0 mg/kg/injection, schedule: Q01DX001 (ip), vehicle: saline with Tween-80 98 % of control | dose: 200.0 mg/kg/injection, schedule: Q01DX001 (ip), vehicle: saline with Tween-80 88 % of control | dose: 400.0 mg/kg/injection, schedule: Q01DX001 (ip), vehicle: saline with Tween-80 98 % of control

COc1nc(=O)n(C2CCCO2)cc1Br (centres undefined)
inactive: [16] 107 % of control | [17] 96 % of control | [18] 98 % of control

CCOc1ccc(-n2c(C)nc3ccccc3c2=O)cc1CNCCBr
inactive: [12] 103 % of control | [13] 111 % of control | [14] 111 % of control

Cc1ccc(NN)cc1Cl
inactive: [4] 105 % of control | [8] 91 % of control

C#CCNc1c(C)cccc1C
inactive: [2] 107 % of control | [4] 98 % of control | [6] 102 % of control | [8] 97 % of control

CCC(C)COC(=O)Nc1cccc(Cl)c1 (centres undefined)
inactive: [16] 102 % of control | [17] 107 % of control | [18] 105 % of control

C[CH2][Ge]([CH2]C)[CH2]C.C[CH2][Ge]([CH2]C)[CH2]C.C[CH2][Ge][CH2]C
active: dose: 400.0 mg/kg/injection, schedule: Q04DX002 (ip), vehicle: saline with Tween-80 319 % of control
inactive: dose: 100.0 mg/kg/injection, schedule: Q04DX002 (ip), vehicle: saline with Tween-80 103 % of control | dose: 200.0 mg/kg/injection, schedule: Q04DX002 (ip), vehicle: saline with Tween-80 95 % of control

CC(=O)OCC(=O)[C@@]1(O)CC[C@H]2[C@@H]3CCC4=CC(=O)C=C[C@]4(C)[C@@]3(F)[C@@H](O)C[C@@]21C
inactive: dose: 12.5 mg/kg/injection, schedule: Q01DX009 (ip), vehicle: saline with Tween-80 117 % of control | dose: 25.0 mg/kg/injection, schedule: Q01DX009 (ip), vehicle: saline with Tween-80 101 % of control | dose: 50.0 mg/kg/injection, schedule: Q01DX009 (ip), vehicle: saline with Tween-80 96 % of control
